Where two headings read alike, the source gives them in different places.

Assay [1] in a line: Viking EC50, 50% NHS. The following applies: method not described, read-out: Viking EC50_50% NHS. Type of assay: cell-based.
In assay [2] the test system is infected PBMCs (VSV-G pseudotyped HIV virus). As to the kind of experiment: cells. Type of assay: cell-based, human. The following applies: read-out: SMACK EC50_50% NHS.

Turning to `CC(F)c1ncn(Cc2ccc(CO)[nH]c2=O)c(=O)c1Oc1cc(Cl)cc(C#N)c1F` (single isomer, unassigned) [Example 32, 5-Chloro-2-Fluoro-3-((4-(1-Fluoroethyl)-1-((6-(Hydroxymethyl)-2-Oxo-1,2-Dihydropyridin-3-Yl)Methyl)-6-Oxo-1,6-Dihydropyrimidin-5-Yl)Oxy)Benzonitrile], the EC50 in assay [1] is 18.2 nM; in assay [2] (Homo sapiens, PBMC), 377 nM. For `CC(F)c1ncn(Cc2ccc(CO)[nH]c2=O)c(=O)c1Oc1cc(Cl)cc(C#N)c1F` (single isomer, unassigned) [Example 33, 5-Chloro-2-Fluoro-3-((4-(1-Fluoroethyl)-1-((6-(Hydroxymethyl)-2-Oxo-1,2-Dihydropyridin-3-Yl)Methyl)-6-Oxo-1,6-Dihydropyrimidin-5-Yl)Oxy)Benzonitrile], the EC50 in assay [1] came to 23.1 nM; in assay [2], 389 nM. For the compound `CC(O)c1ccc(Cn2cnc(C(F)(F)C(F)F)c(Oc3cc(Cl)cc(C#N)c3F)c2=O)c(=O)[nH]1` (single isomer, unassigned) [Example 34], the EC50 turned out to be 43.1 nM in assay [1] and 270 nM in assay [2] (Homo sapiens, PBMC). `COCc1ccc(Cn2cnc(C(F)(F)C(F)F)c(Oc3cc(Cl)cc(C#N)c3F)c2=O)c(=O)[nH]1` [Example 1, 5-Chloro-2-Fluoro-3-((1-((6-(Methoxymethyl)-2-Oxo-1,2-Dihydropyridin-3-Yl)Methyl)-6-Oxo-4-(1,1,2,2-Tetrafluoroethyl)-1,6-Dihydropyrimidin-5-Yl)Oxy)Benzonitrile]: the EC50 in assay [1] was 29.6 nM; in assay [2] (Homo sapiens, PBMC), 258 nM. For `Cc1cc(C)c(Cn2cnc(C(C)(F)F)c(Oc3cc(Cl)cc(C#N)c3F)c2=O)c(=O)[nH]1` [Example 2, 5-chloro-3-((4-(1,1-difluoroethyl)-1-((4,6-dimethyl-2-oxo-1,2-dihydropyridin-3-yl)methyl)-6-oxo-1,6-dihydropyrimidin-5-yl)oxy)-2-fluorobenzonitrile] the same measures were 37.4 nM and 294 nM. Consider `Cc1ccc(Cn2cnc(C(C)(F)F)c(Oc3cc(Cl)cc(C#N)c3F)c2=O)c(=O)[nH]1` [Example 3, 5-chloro-3-((4-(1,1-difluoroethyl)-1-((6-methyl-2-oxo-1,2-dihydropyridin-3-yl)methyl)-6-oxo-1,6-dihydropyrimidin-5-yl)oxy)-2-fluorobenzonitrile], for which the EC50 was determined as 14.1 nM in assay [1] and 87.6 nM in assay [2] (Homo sapiens, PBMC).

For the compound `Cc1ccc(Cn2cnc(C(F)(F)F)c(Oc3cc(Cl)cc(C#N)c3F)c2=O)c(=O)[nH]1` [Example 4, 5-chloro-2-fluoro-3-((1-((6-methyl-2-oxo-1,2-dihydropyridin-3-yl)methyl)-6-oxo-4-(trifluoromethyl)-1,6-dihydropyrimidin-5-yl)oxy)benzonitrile], the EC50 in assay [1] was found to be 41.1 nM; in assay [2] (Homo sapiens, PBMC) it was 197 nM. Take `Cc1cc(C)c(Cn2cnc(C(F)(F)C(F)F)c(Oc3cc(C(F)F)cc(C#N)c3C)c2=O)c(=O)[nH]1` [Example 5, 5-(difluoromethyl)-3-((1-((4,6-dimethyl-2-oxo-1,2-dihydropyridin-3-yl)methyl)-6-oxo-4-(1,1,2,2-tetrafluoroethyl)-1,6-dihydropyrimidin-5-yl)oxy)-2-methylbenzonitrile]: the EC50 came out at 47.1 nM in assay [1] and 161 nM in assay [2] (Homo sapiens, PBMC). On to `Cc1cc(C)c(Cn2cnc(C(F)(F)C(F)F)c(Oc3cc(Cl)cc(C#N)c3)c2=O)c(=O)[nH]1` [Example 6, 3-chloro-5-((1-((4,6-dimethyl-2-oxo-1,2-dihydropyridin-3-yl)methyl)-6-oxo-4-(1,1,2,2-tetrafluoroethyl)-1,6-dihydropyrimidin-5-yl)oxy)benzonitrile], for which the EC50 amounted to 37.5 nM in assay [1] and 263 nM in assay [2] (Homo sapiens, PBMC).

For the compound `Cc1cc(C)c(Cn2cnc(C(F)(F)C(F)F)c(Oc3cc(Br)cc(C#N)c3)c2=O)c(=O)[nH]1` [Example 7, 3-bromo-5-((1-((4,6-dimethyl-2-oxo-1,2-dihydropyridin-3-yl)methyl)-6-oxo-4-(1,1,2,2-tetrafluoroethyl)-1,6-dihydropyrimidin-5-yl)oxy)benzonitrile], the EC50 in assay [1] stood at 29.1 nM; in assay [2] (Homo sapiens, PBMC), 433 nM. `N#Cc1cc(Cl)cc(Oc2c(C(F)(F)C(F)F)ncn(Cc3ccc[nH]c3=O)c2=O)c1Cl` [Example 8, 2,5-dichloro-3-((6-oxo-1-((2-oxo-1,2-dihydropyridin-3-yl)methyl)-4-(1,1,2,2-tetrafluoroethyl)-1,6-dihydropyrimidin-5-yl)oxy)benzonitrile]: the EC50 in assay [1] worked out at 26.9 nM; in assay [2] (Homo sapiens, PBMC), 495 nM. For `Cc1ccc(Cn2cnc(C(F)(F)C(F)F)c(Oc3cc(F)cc(C#N)c3C)c2=O)c(=O)[nH]1` [Example 9] the same measures were 15.7 nM and 281 nM.

Consider `Cc1cc(C)c(Cn2cnc(C(F)(F)C(F)F)c(Oc3c(C)cc(C#N)cc3C)c2=O)c(=O)[nH]1` [Example 10, 4-((1-((4,6-dimethyl-2-oxo-1,2-dihydropyridin-3-yl)methyl)-6-oxo-4-(1,1,2,2-tetrafluoroethyl)-1,6-dihydropyrimidin-5-yl)oxy)-3,5-dimethylbenzonitrile], for which the EC50 in assay [2] (Homo sapiens, PBMC) is 246 nM. The same measure, in the same setting: next, `Cc1c(C#N)cc(C(F)F)cc1Oc1c(C(F)(F)C(F)F)ncn(Cc2cc(Br)c[nH]c2=O)c1=O` [Example 11, 3-((1-((5-bromo-2-oxo-1,2-dihydropyridin-3-yl)methyl)-6-oxo-4-(1,1,2,2-tetrafluoroethy)-1,6-dihydropyrimidin-5-yl)oxy)-5-(difluoromethyl)-2-methylbenzonitrile]: 402 nM.

On to `Cc1c(C#N)cc(Cl)cc1Oc1c(C(C)F)ncn(Cc2ccc(-c3cc[nH]n3)[nH]c2=O)c1=O` (centres unmarked) [Example 12, 5-chloro-3-((4-(1-fluoroethyl)-6-oxo-1-((2-oxo-6-(1H-pyrazol-3-yl)-1,2-dihydropyridin-3-yl)methyl)-1,6-dihydropyrimidin-5-yl)oxy)-2-methylbenzonitrile], for which the EC50 in assay [1] was 127 nM; in assay [2] (Homo sapiens, PBMC), 374 nM. For `Cc1c(C#N)cc(Cl)cc1Oc1c(C(F)(F)F)ncn(Cc2ccc(-c3cc[nH]n3)[nH]c2=O)c1=O` [Example 13, 5-chloro-2-methyl-3-((6-oxo-1-((2-oxo-6-(1H-pyrazol-3-yl)-1,2-dihydropyridin-3-yl)methyl)-4-(trifluoromethyl)-1,6-dihydropyrimidin-5-yl)oxy)benzonitrile] the same measures were 343 nM and 296 nM.

Turning to `Cc1c(C#N)cc(C(F)F)cc1Oc1c(C(F)(F)C(F)F)ncn(Cc2cc(F)c[nH]c2=O)c1=O` [Example 14, 5-(Difluoromethyl)-3-((1-((5-Fluoro-2-Oxo-1,2-Dihydropyridin-3-Yl)Methyl)-6-Oxo-4-(1,1,2,2-Tetrafluoroethyl)-1,6-Dihydropyrimidin-5-Yl)Oxy)-2-Methylbenzonitrile], the EC50 in assay [1] was determined as 29.5 nM; in assay [2] (Homo sapiens, PBMC), 101 nM. As for `Cc1cc(C#N)cc(Oc2c(C(C)(F)F)ncn(Cc3c(C)cc(C)[nH]c3=O)c2=O)c1` [Example 15, 3-((4-(1,1-difluoroethyl)-1-((4,6-dimethyl-2-oxo-1,2-dihydropyridin-3-yl)methyl)-6-oxo-1,6-dihydropyrimidin-5-yl)oxy)-5-methylbenzonitrile], the EC50 in assay [1] turned out to be 21.9 nM; in assay [2] (Homo sapiens, PBMC), 384 nM.

Consider `Cc1c(C#N)cc(C(F)F)cc1Oc1c(C(F)(F)F)ncn(Cc2ccc[nH]c2=O)c1=O` [Example 16, 5-(difluoromethyl)-2-methyl-3-((6-oxo-1-((2-oxo-1,2-dihydropyridin-3-yl)methyl)-4-(trifluoromethyl)-1,6-dihydropyrimidin-5-yl)oxy)benzonitrile], for which the EC50 in assay [1] is 7.08 nM; in assay [2] (Homo sapiens, PBMC) it was 268 nM. As for `Cc1c(C#N)cc(C(F)F)cc1Oc1c(C(F)(F)C(F)F)ncn(Cc2ccc[nH]c2=O)c1=O` [Example 17, 5-(difluoromethyl)-2-methyl-3-((6-oxo-1-((2-oxo-1,2-dihydropyridin-3-yl)methyl)-4-(1,1,2,2-tetrafluoroethyl)-1,6-dihydropyrimidin-5-yl)oxy)benzonitrile], the EC50 in assay [1] stood at 17.1 nM; in assay [2] (Homo sapiens, PBMC), 218 nM.

Turning to `Cc1c(C#N)cc(Cl)cc1Oc1c(C(F)(F)F)ncn(Cc2cc(F)c[nH]c2=O)c1=O` [Example 19, 5-chloro-3-((1-((5-fluoro-2-oxo-1,2-dihydropyridin-3-yl)methyl)-6-oxo-4-(trifluoromethyl)-1,6-dihydropyrimidin-5-yl)oxy)-2-methylbenzonitrile], the EC50 in assay [1] came to 30.7 nM; in assay [2] (Homo sapiens, PBMC), 376 nM. For the compound `N#Cc1cc(Cl)cc(Oc2c(C(F)(F)C(F)(F)F)ncn(Cc3cc(F)c[nH]c3=O)c2=O)c1F` [Example 20, 5-chloro-2-fluoro-3-((1-((5-fluoro-2-oxo-1,2-dihydropyridin-3-yl)methyl)-6-oxo-4-(perfluoroethyl)-1,6-dihydropyrimidin-5-yl)oxy)benzonitrile], the EC50 came to 83.7 nM in assay [1] and 99 nM in assay [2] (Homo sapiens, PBMC). In the case of `Cc1ccc(Cn2cnc(C(F)(F)C(F)(F)F)c(Oc3cc(Cl)cc(C#N)c3F)c2=O)c(=O)[nH]1` [Example 21, 5-Chloro-2-Fluoro-3-((1-((6-Methyl-2-Oxo-1,2-Dihydropyridin-3-Yl)Methyl)-6-Oxo-4-(Perfluoroethyl)-1,6-Dihydropyrimidin-5-Yl)Oxy)Benzonitrile], the EC50 was found to be 76.8 nM in assay [1] and 152 nM in assay [2] (Homo sapiens, PBMC). Consider `Cc1ccc(Cn2cnc(C(F)(F)C(F)F)c(Oc3cc(C(F)F)cc(C#N)c3C)c2=O)c(=O)[nH]1` [Example 22, 5-(difluoromethyl)-2-methyl-3-((1-((6-methyl-2-oxo-1,2-dihydropyridin-3-yl)methyl)-6-oxo-4-(1,1,2,2-tetrafluoroethyl)-1,6-dihydropyrimidin-5-yl)oxy)benzonitrile], for which the EC50 amounted to 48.9 nM in assay [1] and 131 nM in assay [2] (Homo sapiens, PBMC).

In the case of `Cc1c(C#N)cc(C(F)F)cc1Oc1c(C(F)(F)C(F)F)ncn(Cc2ccc(CCCO)[nH]c2=O)c1=O` [Example 28, 5-(difluoromethyl)-3-((1-((6-(3-hydroxypropyl)-2-oxo-1,2-dihydropyridin-3-yl)methyl)-6-oxo-4-(1,1,2,2-tetrafluoroethyl)-1,6-dihydropyrimidin-5-yl)oxy)-2-methylbenzonitrile], the EC50 in assay [2] (Homo sapiens, PBMC) was found to be 73.8 nM.

These data come from patent US20250214962A1, “PYRIDINONE DERIVATIVES AS SELECTIVE CYTOTOXIC AGENTS AGAINST HIV INFECTED CELLS” (Merck Sharp & Dohme LLC, priority 2019, published 2025).
